For the first data set, the target named is Bromodomain-containing protein 4 (Homo sapiens, UniProt O60885, Y97A). As to the kind of experiment: Displacement of Alexa Fluor 647 labelled ligand from His6-tagged BRD4 BD2 (1 to 477 residues)/BD1 Y97A mutant (unknown origin) after 30 mins by TR-FRET assay.
Conditions: not given
Background: In TR-FRET formats the signal depends on donor and acceptor labels being close together.
As a reminder, the IC50 is the concentration needed to halve the response being measured. Low values mean greater potency, high ones weaker potency. As for `CNC(=O)c1cc(C(=O)NCCO)cc2c1O[C@H](C)[C@H]2c1ccccc1`, the IC50 is 158 nM.

The compound `CNC(=O)c1cccc2c1O[C@@H](C)[C@H]2c1ccccc1` gave a concentration for half-maximal inhibition (IC50) of 2510 nM.

`CNC(=O)c1cc(C(=O)NC2CCOC2)cc2c1O[C@H](CF)[C@H]2c1ccccc1` (stereo not given in full) had a half-inhibitory concentration (IC50) of 158 nM.

Compound `CNC(=O)c1cccc2c1O[C@@H](c1ccccc1)[C@@H]2C` showed an IC50 of 10000 nM.

Tested on in the next data set: not listed separately
As to the kind of experiment: Permeability of compound by artificial membrane assay. The class given is ADME. The note with it: PAMPA; read-out: permeability. (The PAMPA barrier holds no transporters, so it reflects passive diffusion.)
As to `CNC(=O)c1cc(C(=O)NCCC[C@H]2OC[C@H](N)CO2)cc2c1O[C@H](CF)[C@H]2c1ccccc1`, the Papp is 4.5 ×10⁻⁶ cm/s.

Tested on in another data set: not listed separately
The experiment in a line: Oral bioavailability in Wistar Han rat at 3 mg/kg administered via gavage and measured up to 7 hrs by LC-MS/MS analysis. Conditions: in vivo. The class given is ADME, organism-based.
A word on the bioavailability: it is dose-corrected exposure relative to a reference, in per cent. High values mean much systemic uptake, low ones little systemic uptake. In turn, `CNC(=O)c1cc(C(=O)NCCC[C@H]2OC[C@H](N)CO2)cc2c1O[C@H](CF)[C@H]2c1ccccc1` displayed a bioavailability of 3%.

Tested on in a further data set: not listed separately
As to the kind of experiment: Clearance in Wistar Han rat at 1 mg/kg administered as iv infusion for 1 hr and measured up to 7 hrs by LC-MS/MS analysis. The class given is ADME, organism-based. The note with it: in vivo.
What is called clearance is a measure of how efficiently the substance is removed, as volume per time. `CNC(=O)c1cc(C(=O)NCCC[C@H]2OC[C@H](N)CO2)cc2c1O[C@H](CF)[C@H]2c1ccccc1` returned a clearance of 73 mL/min/kg.

Tested on in the next data set: not listed separately
As to the kind of experiment: Chromatographic hydrophobicity index, log D of the compound in pH 7.4 ammonium acetate buffer/acetonitrile gradient by HPLC analysis.
Conditions: not given
Format: physicochemical.
Take `CCNC(=O)c1cc(C(=O)NC)c(=O)n(Cc2ccccc2)c1`: the CHI was found to be 2.99.

Compound `CNC(=O)c1cc(C(N)=O)cc2c1O[C@H](CF)[C@H]2c1ccccc1` displayed a CHI of 2.89.

The compound `CNC(=O)c1cc(C(=O)NC2CC2)cn(Cc2ccccc2)c1=O` [GSK620] had a CHI of 3.07.

For `CNC(=O)c1cc(C(=O)NCCOC)cn(Cc2ccccc2)c1=O`, the CHI is 2.74.

On to `CNC(=O)c1cc(C(N)=O)cn(Cc2ccccc2)c1=O`, for which the CHI came to 2.03.

Regarding `CNC(=O)c1cc(C(=O)NCCC[C@H]2OC[C@H](N)CO2)cc2c1O[C@H](CF)[C@H]2c1ccccc1`, the CHI was 2.94.

For `CNC(=O)c1cc(C(=O)NCCO)cn(Cc2ccccc2)c1=O`, the CHI is given as 1.9.

Turning to `CNC(=O)c1cc(C(=O)N[C@H]2C[C@@H]2C)cc2c1O[C@H](CF)[C@H]2c1ccccc1`, the CHI is given as 4.53.

In turn, `CNC(=O)c1cc(C(=O)NC)c(=O)n(Cc2ccccc2)c1` yielded a CHI of 2.38.

In turn, `CNC(=O)c1cc(C(=O)NCCO)cc2c1O[C@H](C)[C@H]2c1ccccc1` displayed a CHI of 3.12.

The compound `CNC(=O)c1cc(C(=O)NC2CCOC2)cc2c1O[C@H](CF)[C@H]2c1ccccc1` (stereo not given in full) showed a CHI of 3.51.

Tested on in another data set: not listed separately
The experiment in a line: Clearance in Wistar Han rat hepatocytes assessed as per gram tissue at 0.5 uM by LC-MS/MS analysis. Format: ADME, cell-based, Hepatocyte.
Conditions: not given
Consider `CNC(=O)c1cc(C(=O)NCCC[C@H]2OC[C@H](N)CO2)cc2c1O[C@H](CF)[C@H]2c1ccccc1`, for which the CLH amounted to 1.39 mL/min/g.

Tested on in a further data set: not listed separately
As to the kind of experiment: Volume of distribution at steady state in Wistar Han rat at 1 mg/kg administered as iv infusion for 1 hr and measured up to 7 hrs by LC-MS/MS analysis. Format: ADME, organism-based. Conditions: in vivo, read-out: Vdss.
On to `CNC(=O)c1cc(C(=O)NCCC[C@H]2OC[C@H](N)CO2)cc2c1O[C@H](CF)[C@H]2c1ccccc1`, for which the Vd came out at 2.1 L/kg.

Tested on in a further data set: not listed separately
The experiment in a line: Half life in Wistar Han rat at 1 mg/kg administered as iv infusion for 1 hr and measured up to 7 hrs by LC-MS/MS analysis. The class given is ADME, organism-based. The note with it: in vivo.
One may read the half-life as the time in which the quantity being followed falls by half. `CNC(=O)c1cc(C(=O)NCCC[C@H]2OC[C@H](N)CO2)cc2c1O[C@H](CF)[C@H]2c1ccccc1` showed a half-life of 36 min.

For the next data set, the system named is Bromodomain-containing protein 4 (Homo sapiens), O60885 [UNDEFINED MUTATION]. As to the kind of experiment: Selectivity index, ratio of IC50 for displacement of Alexa Fluor 647 labelled ligand from His6-tagged BRD4 BD1 (1 to 477 residues)/BD2 Y390A mutant (unknown origin) to IC50 for displacement of Alexa Fluor 647 labelled ligand from His6-tagged BRD4 BD2 (1 to 477 residues)/BD1 Y97A mutant (unknown origin).
Conditions: not given
On to `CNC(=O)c1cc(C(=O)NCCO)cc2c1O[C@H](C)[C@H]2c1ccccc1`, for which the Ratio IC50 was more than 320.

For `CNC(=O)c1cccc2c1O[C@@H](C)[C@H]2c1ccccc1`, the Ratio IC50 was 10.

Take `CNC(=O)c1cc(C(=O)NC2CCOC2)cc2c1O[C@H](CF)[C@H]2c1ccccc1` (stereo not given in full): the Ratio IC50 is more than 300.

Regarding `CNC(=O)c1cccc2c1O[C@@H](c1ccccc1)[C@@H]2C`, the Ratio IC50 worked out at 5.

The next data set deals with Blood. The experiment in a line: Inhibition of LPS-induced MCP1 production in human whole blood preincubated for 30 mins followed by LPS addition measured after 24 hrs by immuno assay. Format: functional, tissue-based.
Conditions: not given
`CNC(=O)c1cc(C(=O)NCCC[C@H]2OC[C@H](N)CO2)cc2c1O[C@H](CF)[C@H]2c1ccccc1`: the IC50 is 126 nM. This lies in the sub-micromolar range.

`CNC(=O)c1cc(C(=O)N[C@H]2C[C@@H]2C)cc2c1O[C@H](CF)[C@H]2c1ccccc1` gave an IC50 of 100 nM. This IC50 and that of the compound before are within 1.5-fold of each other.

The target of the next data set is Bromodomain-containing protein 4 (Homo sapiens, UniProt O60885, Y390A). As to the kind of experiment: Displacement of Alexa Fluor 647 labelled ligand from His6-tagged BRD4 BD1 (1 to 477 residues)/BD2 Y390A mutant (unknown origin) after 30 mins by TR-FRET assay.
Conditions: not given
In turn, `CNC(=O)c1cc(C(=O)NCCO)cc2c1O[C@H](C)[C@H]2c1ccccc1` showed an IC50 of more than 50100 nM.

For the compound `CNC(=O)c1cc(C(=O)NC2CCOC2)cc2c1O[C@H](CF)[C@H]2c1ccccc1` (stereo not given in full), the IC50 is more than 50100 nM.

Tested on in the next data set: not listed separately
The experiment in a line: Renal clearance in Wistar Han rat at 1 mg/kg administered as iv infusion for 1 hr and measured up to 7 hrs by LC-MS/MS analysis. The class given is ADME, organism-based. Conditions: in vivo.
In turn, `CNC(=O)c1cc(C(=O)NCCC[C@H]2OC[C@H](N)CO2)cc2c1O[C@H](CF)[C@H]2c1ccccc1` registered a CL renal of 10 mL/min/kg.

Values taken from ChEMBL document CHEMBL4619816, “GSK973 Is an Inhibitor of the Second Bromodomains (BD2s) of the Bromodomain and Extra-Terminal (BET) Family” (ACS Med Chem Lett, 2020).
